# Reference: patent US20150309029A1, “Methods for Cancer Diagnosis, Anti-Cancer Drug Screening, and Test of Drug Effectiveness on the Basis of Phoshorylation of Ras at Thr-144 and Thr-148” (Industry-Academic Cooperation Foundation, Yonsei University, priority 2010, published 2015)
# Where a SMILES comes first, the peptide text is derived from it. [ ]: non-standard residue; d: D form. Nle = CCCC[C@H](N)C(=O)O
# Tests used:
# Type in all cases: cell-based, human
# [1] = test system: polyubiquitin-conjugated K- and N-Ras proteins; assay: IP/immunoblot of polyubiquitinated K- and N-Ras in transfected HEK293 cells after ALLN; settings: ALLN treatment, IP with anti-Myc (FIG. 8A)
# Method: To examine the possibility that K- and N-Ras proteins, similar to H-Ras, were subjected to polyubiquitination by proteasomal degradation, HEK293 cells were transfected with pcDNA3.1-H-Ras, pcDNA3.1-K-Ras, or pcDNA3.1-N-Ras with pCS4-3xFlag-Ub. Cells were treated with ALLN followed by IP with anti-Myc antibody and then immunoblotted with anti-Myc, -α-tubulin, or -Flag antibody. […] Therefore, we confirmed that H-, K-, N-Ras protein stability is regulated by polyubiquitin-dependent proteasomal degradation (FIG. 8A).
# [2] = test system: phosphor-mimetic form of H-Ras; assay: Immunoblot of phospho-mimetic H-Ras level in transfected HEK293 cells after ALLN; settings: ALLN for 12 hours, immunoblot (FIG. 5A lower panels)
# Method: The protein expression level of the phosphorylation mimetic mutant is too low to be detected due to the severe destabilization; therefore, the proteasomal inhibitor, ALLN was treated to check for the accumulation of phosphor-mimetic form of H-Ras.
# HEK293 cells were transfected with pcDNA3.1-H-Ras, pcDNA3.1-H-Ras-T144E/T148E, or pcDNA3.1-H-Ras-T144D/T148D. For indicated cases, ALLN was also administered for 12 hours. WCEs were immunoblotted with anti-Myc or -α-tubulin antibody (FIG. 5A lower panels). Treatment with ALLN increased the level of phosphor-mimetic form of H-Ras.
# H-Ras [3] = assay: H-Ras polyubiquitination in HEK293 cells with Gsk3β or Axin siRNA; settings: siRNA knockdown, ALLN 12 hours (FIG. 1C)
# Method: Next, HEK293 cells were transfected with vector/nonspecific siRNA, pSUPER-Axin siRNA, pCS2-MT-Axin, siGsk3β, and/or pcDNA3.1-Gsk3β-V5 together with pcDNA3.1-H-Ras and pCS4-3xFlag-Ub for 24 hours and then treated with ALLN for 12 hours. IP and immunoblotting were performed as described above.
# Pan-Ras = assay: Polyubiquitination of endogenous Pan-Ras in HEK293 cells with Gsk3β siRNA; settings: siRNA knockdown, ALLN 12 hours (FIG. 1A)
# Method: Full-length human H-Ras was isolated from a HEK293 cell cDNA library by PCR and then inserted into the pcDNA-3.1-myc vector using EcoRI and HindIII restriction sites. PcDNA3.1-Gsk3β-V5 was constructed in a similar method. HEK293 cells were transfected with vector/nonspecific siRNA, Gsk3β siRNA, or pcDNA3.1-Gsk3β-V5 together with pCS4-3xFlag-Ub for 24 hours and treated with the proteasome inhibitor ALLN for 12 hours. WCEs (whole cell extracts) were then immunoprecipitated (IP) with anti-Pan-Ras antibody to detect the polyubiquitinated H-Ras. WCEs were immunoblotted with antibodies to Gsk3β, Pan-Ras, Myc-H-Ras or α-tubulin. The siRNA sequences for Gsk3β NM_002093) were 5′-[…]-3′ (SEQ ID NO: 2) and 5′-[…]-3′ (SEQ ID NO: 3). The GFP siRNA used for the negative control was 5′-[…]-3′ (SEQ ID NO: 4) (synthesized by Samchully Pharmaceutical, Korea).
# H-Ras [4] = assay: IP/immunoblot of H-Ras polyubiquitination and β-TrCP interaction in HEK293 cells with Wnt3a
# Method: HEK293 cells were transfected the pcDNA3.1-H-Ras, pcDNA3.1-H-Ras-T144E/T148E, or pcDNA3.1-H-Ras-T144A/T148A with vector, pcDNA3.1-Gsk3β-V5, and/or pcDNA3.1-Flag-β-TrCP, together with pCS4-3xHA-Ub, treated with ALLN for 12 hours and/or Wnt3a for 2 hours as indicated, and prepared for IP with anti-Myc antibody. IPs and WCEs were immunoblotted with anti-HA, -β-TrCP or -α-tubulin antibody.
molecule,measurement,setting,value
CCCC[C@@H](C=O)NC(=O)[C@H](CC(C)C)NC(=O)[C@H](CC(C)C)NC(C)=O [ALLN] (Ac-Leu-Leu-[Nle]-aldehyde),accumulation of polyubiquitin-conjugated K- and N-Ras proteins,[1],accumulation of polyubiquitin-conjugated K- and N-Ras proteins
same,level of phosphor-mimetic form of H-Ras,[2],increased
Gsk3β siRNA: siRNA for Gsk3β: 5′-CACUGAUUAUACCUCUAGU-3′ and 5′-CACUGUAACAUAGUCCGAU-3′ (chemistry not given here),H-Ras polyubiquitination,H-Ras [3],decreased
same,levels of Pan-Ras polyubiquitination,Pan-Ras,decreased
"Wnt3a: recombinant Wnt3a (protein, UniProt P56704 19-352, looked up) Protein Wnt-3a: SYPIWWSLAVGPQYSSLGSQPILCASIPGLVPKQLRFCRNYVEIMPSVAEGIKIGIQECQHQFRGRRWNCTTVHDSLAIFGPVLDKATRESAFVHAIASAGVAFAVTRSCAEGTAAICGCSSRHQGSPGKGWKWGGCSEDIEFGGMVSREFADARENRPDARSAMNRHNNEAGRQAIASHMHLKCKCHGLSGSCEVKTCWWSQPDFRAIGDFLKDKYDSASEMVVEKHRESRGWVETLRPRYTYFKVPTERDLVYYEASPNFCEPNPETGSFGTRDRTCNVSSHGIDGCDLLCCGRGHNARAERRREKCRCVFHWCCYVSCQECTRVYDVHTCK",polyubiquitination of phospho-deficient form of H-Ras,"H-Ras [4]; Wnt3a, T144A/T148A H-Ras",not affected
same,polyubiquitination and interaction with β-TrCP of Wt H-Ras increased by Gsk3β transfection,"H-Ras [4]; recombinant Wnt3a for 2 hours, Wt H-Ras",blocked
